Measurements taken from publication PMC10377753, “Pharmacokinetic and pharmacodynamic properties of polymyxin B in Escherichia coli and Klebsiella pneumoniae murine infection models” (Journal of Antimicrobial Chemotherapy, 2023).
Structures can show the parent of a compound that is named as a salt. Bridge positions count the residues as written; N and C are the ends. Square brackets hold non-standard residues; d marks the D form. Peptide text beside a SMILES is read from it. * marks the point of attachment. X1 = CC[C@H](C)CCCCC(=O)*; Dab = NCC[C@H](N)C(=O)O

Tests used:
[1] = system: four E. coli and four K. pneumoniae strains; assay: Dose-response study, thigh infection model, summary over all eight isolates; format: in vivo, Escherichia coli, Klebsiella pneumoniae; conditions: q6h dosing, mouse thigh infection
Procedure: Experiments were carried out in the Erasmus Laboratory Animal Science Centre in Rotterdam, The Netherlands in accordance with the EU Animal Directive 2010/63/EU 2010 directive[14] (licence number AVD101002016702) as described before,[15] with approval of the institutional Animal Welfare Body. Outbred female CD-1 mice obtained from Charles River Germany, weighing 20–25 g, 7–8 weeks old, were used in the experiments. The mice were housed under standard conditions with drink and feed supplied ad libitum.
Mice were rendered neutropenic by intraperitoneal injection of cyclophosphamide of 150 and 100 mg/kg, 4 days and 1 day before infection, respectively. […]
Animals were humanely euthanized 24 h (t = 24 h) after the first dose, unless the welfare of the animals necessitated earlier termination, following animal welfare regulations. […] The following day, colonies were counted and the number of cfu per thigh was calculated.
The drug effect was determined by the difference between the log10 cfu values at t = 0 h (mean value of two mice) and t = 24 h (value of individual mice) expressed as Δlog10 cfu. […]
A sigmoid maximum effect (Emax) model was fitted to the PK/PD index versus Δlog10 cfu data by non-linear regression, and static or a 1 log or 2 log kill effect were determined using GraphPad Prism 8.0 (GraphPad, Inc., San Diego, CA, USA). […]

plasma proteins = assay: Plasma protein binding by ultrafiltration; format: in vitro ADME; conditions: plasma of infected mice treated with polymyxin B, corrected for non-specific binding, LC-MS/MS, mean ± SD, no concentration dependency
Procedure: (§1) The binding of polymyxin B to plasma proteins was determined via ultrafiltration. Polymyxins have a tendency to non-specifically bind to different kinds of material, including ultrafiltration filters. Thus, to correct for polymyxin B loss on the filter, an experiment was performed in which ultrafiltrated (UF) phosphate buffer was spiked with multiple polymyxin B concentrations (ranging from 0.75 to 8 mg/L) and subsequently concentrations were measured. […] Using this relationship, the non-specific binding (NSB) for each measured polymyxin B UF concentration was calculated. Correction for the measured polymyxin B UF concentration using this NSB value was according to the following formula: polymyxin B UF Corrected Concentration = Measured polymyxin B UF Concentration × (1−NSB).
(§2) Polymyxin B concentrations in plasma, BAL and ultrafiltrates were determined by a validated LC-MS/MS method,[18] with a lower limit of quantification (LOQ) of 0.2 mg/L for plasma and 0.05 mg/L for BAL fluid and ultrafiltrates. […] The residues were dissolved in 0.1 mL of 0.1% formic acid in water and analysed by LC-MS/MS. […] Polymyxin B was analysed on an XBridge C18 column (5 µm, 2.1 × 150 mm; Waters). […] Calibration curves of polymyxin B ranged from 0.1 to 10 mg/L for plasma and ultrafiltrates, and were quantified with a quadratic regression mode. […]

[2] = Non-specific binding to ultrafiltration filter; format: physicochemical; conditions: LC-MS/MS
Procedure: as §1, §2

[3] = Tolerability of subcutaneous dosing in infected neutropenic mice; format: in vivo
Procedure: Dose-fractionation studies were performed for E. coli ATCC 25922 and K. pneumoniae 104 in the thigh infection model. Two hours after infection, treatment with polymyxin B was administered subcutaneously over 24 h at the following dosing regimens: 4–128 mg/kg q6h [total daily dose (TDD) 16–512 mg/kg]; 8–256 mg/kg q12h (TDD 16–512 mg/kg); 256–512 mg/kg q24h (TDD 256–512 mg/kg).
For dose–response studies, a 6 hourly dosing regimen of 1–32 mg/kg was studied in the thigh infection model. Mice were infected with E. coli […], 15, 51 or 71 or K. pneumoniae ATCC 43816, 17, 58 or 74.
Animals were humanely euthanized 24 h (t = 24 h) after the first dose, unless the welfare of the animals necessitated earlier termination, following animal welfare regulations. Excised thighs were transferred to a pre-cooled 14 mL polypropylene tube containing 2 mL of PBS and were homogenized using a T25 ULTRA-TURRAX (IKA-Werke GmbH & Co, Staufen, Germany). A 10-fold dilution series was prepared and 3 × 10 μL was plated per dilution. The following day, colonies were counted and the number of cfu per thigh was calculated.

With `CC[C@H](C)CCCCC(=O)N[C@@H](CCN)C(=O)N[C@H](C(=O)N[C@@H](CCN)C(=O)N[C@H]1CCNC(=O)[C@H]([C@@H](C)O)NC(=O)[C@H](CCN)NC(=O)[C@H](CCN)NC(=O)[C@H](CC(C)C)NC(=O)[C@@H](Cc2ccccc2)NC(=O)[C@H](CCN)NC1=O)[C@@H](C)O` [polymyxin B, Polymyxin B sulphate salt] (X1-[Dab]T[Dab][Dab][Dab][dF]L[Dab][Dab]T; lactam 4-C) the “Isolates in which a 1 log kill effect was observed” value [1] was 3/8, the “Isolates in which a 2 log kill effect was observed” value [1] was 1/8 and the “%fu (percent fraction unbound)” value (plasma proteins) was 20% ± 4.0%. The “Non-specific binding (NSB)” value ([2]; phosphate buffer spiked at 0.75 mg/L) was 77% ± 8.3%, the “Non-specific binding (NSB)” value ([2]; phosphate buffer spiked at 8 mg/L) was 20% ± 0.6% and the “Mice in which the last (fourth) administration was not tolerated” value ([3]; 32 mg/kg q6h (TDD 128 mg/kg) s.c.) was 2/4. For the same compound, the Tolerability ([3]; doses >64 mg/kg s.c., dose fractionation studies, neutropenic infected mice) was “not tolerated”.
